From patent publication US20240131168A1, “NAPHTHALENE RING-CONTAINING COMPOUND, PHARMACEUTICAL COMPOSITION CONTAINING SAME, AND USE THEREOF” (JIANGSU YAHONG MEDITECH CO., LTD., priority 2021, published 2024)

How the values were obtained:
Assay type in all cases: cell-based
MCF-7 = assay: CellTiter-Glo cell proliferation inhibition, MCF-7 (Effect Example 2); conditions: Homo sapiens, MCF7, 144 h, MCF-7 (CTG), 6 days, starting concentration 10 μM; for inhibition at up to 10 µM: read-out: IH % max (maximum inhibition percentage)
Description: (§1) 1. Cell line • (1) Breast cancer cell lines and their culture media: • MCF-7 (ATCC; Cat. No.: HTB-22), a Luminal A breast cancer cell; • TamR-MCF-7 (ATCC; Cat. No.: CRL-3435), a breast cancer cell; • MCF-7 ER^D538G: a Luminal A breast cancer cell obtained by constructing MCF-7 (ATCC; Cat. No.: HTB-22) using CRISPR-Cas9 gene editing technology; • MCF-7 ER^Y537S: a Luminal A breast cancer cell obtained by constructing MCF-7 (ATCC; Cat. No.: HTB-22) using CRISPR-Cas9 gene editing technology; • MDA-MB-231: (manufacturer: Nanjing CoBioer Biosciences Co., Ltd.), a triple-negative breast cancer cell; • MDA-MB-468: (manufacturer: Nanjing CoBioer Biosciences Co., Ltd.), a triple-negative breast cancer cell.
(§2) Herein, the culture medium of MCF-7, TamR-MCF-7, MCF-7 ER^D538G, and MCF-7 ER^Y537S was EMEM; • the culture medium of MDA-MB-231 and MDA-MB-468 was DMEM.
(§3) 2. Reagents • Culture medium EMEM (Gibco, 1964507) • Culture medium DMEM (Gibco, 12430-054) • Fetal bovine serum (Gibco, 10091148) • Penicillin-streptomycin double antibody (Gibco, S110JV) • DPBS (Gibco, 14190-144) • CellTiter-Glo® assay kit (Promega, G7573) • Trypsin (0.25%) (Gibco, 25200-056) • DMSO (Sigma, D2650)
(§4) 3. Instruments • Biosafety cabinet (AIRTECH, BSC-1300A II) • Automated cell counter (Life Technologies, countess II) • Multifunctional microplate reader (Biotek, H1FM) • Orbital shaker (Hangzhou Allsheng Instruments Co., Ltd., OS-100) • XLFIT 5.3 (Inforstack Shanghai Co., Ltd.)
(§5) For this test method, the following experiments were performed in a biosafety cabinet, with the specific steps as follows: • (1) Cells were inoculated in a 96-well plate. One day later, the previous culture medium was poured off, 5 mL of DPBS was added to wash the cells, and then DPBS was pipetted and discarded. An appropriate amount of trypsin was then added. The plate was digested in a 37° C., 5% CO2 cell incubator for about 2 to 5 minutes and then taken out. Anew corresponding culture medium was added, and pipetted up and down to resuspend the cells evenly. The cells were then counted using an automated cell counter. • (2) Each cell was inoculated in columns 1 to 11 of a 96-well plate (Corning, Cat. No.: 3610) at a density of 1,000 or 2,000 cells per well in 100 μL of culture medium, and 100 μL of the corresponding culture medium without cells was added to the wells in column 12. The plate was then placed in a 37° C., 5% CO2 incubator for 24 hours. • (3) The compound of the present disclosure and the control drug fulvestrant (Selleck; Cat. No.: S1191) were then 4-fold serially diluted to 10 dose points starting at 10 μM. 10 μL of the serially diluted compound was pipetted and added to 100 μL of cells in columns 1 to 10, and 10 μL of the corresponding culture medium containing 0.33 v % DMSO was added to both columns 11 and 12. The plate was incubated in a 37° C., 5% CO2 incubator for 6 days or 72 hours (Note: column 11 was used as a MAX well with cells but without compound; column 12 was used as a MIN well without cells […]). • (4) The cell viability detection reagent in the CellTiter-Glo® assay kit was then added to the 96-well plate at 50 μL per well according to the instructions, and shaken on an orbital shaker in the dark for 5 to 10 minutes. The cell viability was then measured using a multifunctional microplate reader. Finally, the inhibition of cell proliferation by the compound of the present disclosure was plotted by XLFIT software, and the IC50 value (half inhibitory concentration) and the IH % max (maximum inhibition percentage) of the compound of the present disclosure were calculated.

MCF-7 ER^D538G = assay: CellTiter-Glo cell proliferation inhibition, MCF-7 ER^D538G; conditions: Homo sapiens, MCF7, 144 h; MCF-7 ER^D538G (CTG), 6 days, starting concentration 10 μM; read-out: IH % max (maximum inhibition percentage)
Description: as §1, §2, §3, §4, §5

MDA-MB-468 = assay: CellTiter-Glo cell proliferation inhibition, MDA-MB-468; conditions: Homo sapiens, 144 h, MDA-MB-468 (CTG), 6 days, starting concentration 10 μM; for inhibition at up to 10 µM: read-out: IH % max (maximum inhibition percentage)
Description: as §1, §2, §3, §4, §5
Compounds D64 to D69 were tested for MDA-MB-231 (CTG) and MDA-MB-468 (CTG) with an incubation time of 72 hours in the incubator.

## CCN(CCOCCOCC(=O)N1CCN(c2ccc3c(c2)C(=O)N(C2CCC(=O)NC2=O)C3)CC1)CCOc1ccc(Oc2c(-c3ccc(S(C)(=O)=O)cc3)ccc3cc(O)ccc23)cc1 (stereo not shown) [Compound D44]
MCF-7
  inhibition at up to 10 µM: 33%
MCF-7 ER^D538G
  inhibition at up to 10 µM: 52%

## COc1ccc2c(Oc3ccc(OCCN4CCN(c5ccc6c(c5)CN(C5CCC(=O)NC5=O)C6=O)CC4)cc3)c(-c3ccc(S(C)(=O)=O)cc3)ccc2c1 (stereo not shown) [Compound D3, 3-(5-(4-(2-(4-((6-methoxy-2-(4-(methylsulfonyl)phenyl)naphthalen-1-yl)oxy)phenoxy)ethyl)piperazin-1-yl)-1-oxoisoindolin-2-yl)piperidine-2,6-dione]
MDA-MB-468
  IC50: 18.6 nM
  inhibition at up to 10 µM: 73%
MCF-7
  inhibition at up to 10 µM: 30%

## COc1ccc2c(Oc3ccc(OCCCCN4CCN(c5ccc6c(c5)CN(C5CCC(=O)NC5=O)C6=O)CC4)cc3)c(-c3ccc(S(C)(=O)=O)cc3)ccc2c1 (stereo not shown) [Compound D58, 3-(5-(4-(4-(4-((6-methoxy-2-(4-(methylsulfonyl)phenyl)naphthalen-1-yl)oxy)phenoxy)butyl)piperazin-1-yl)-1-oxoisoindolin-2-yl)piperidine-2,6-dione]
MCF-7
  inhibition at up to 10 µM: 39%

## CCN(CCOc1ccc(Oc2c(-c3ccc(S(C)(=O)=O)cc3)ccc3cc(O)ccc23)cc1)CCN1CCN(c2ccc3c(c2)C(=O)N(C2CCC(=O)NC2=O)C3)CC1 (stereo not shown) [Compound D56]
MCF-7
  inhibition at up to 10 µM: 55.6%

## CS(=O)(=O)c1ccc(-c2ccc3cc(O)ccc3c2Oc2ccc(OCCOCCOCCOCCNc3cccc4c3CN(C3CCC(=O)NC3=O)C4=O)cc2)cc1 (stereo not shown) [Compound D20, 3-(4-((2-(2-(2-(2-(4-((6-hydroxy-2-(4-(methylsulfonyl)phenyl)naphthalen-1-yl)oxy)phenoxy)ethoxy)ethoxy)ethoxy)ethyl)amino)-1-oxoisoindolin-2-yl)piperidine-2,6-dione]
MCF-7
  inhibition at up to 10 µM: 38%

## CCN(CCOCCOCCOCCNc1ccc2c(c1)C(=O)N(C1CCC(=O)NC1=O)C2=O)CCOc1ccc(Oc2c(-c3ccc(S(C)(=O)=O)cc3)ccc3cc(O)ccc23)cc1 (stereo not shown) [Compound D62, 2-(2,6-dioxopiperidin-3-yl)-5-((3-ethyl-1-(4-((6-hydroxy-2-(4-(methylsulfonyl)phenyl)naphthalen-1-yl)oxy)phenoxy)-6,9,12-trioxa-3-azatetradecan-14-yl)amino)isoindoline-1,3-dione]
MDA-MB-468
  inhibition at up to 10 µM: 98.5%
MCF-7
  inhibition at up to 10 µM: 45.1%

## CS(=O)(=O)c1ccc(-c2ccc3cc(O)ccc3c2Oc2ccc(OCC(=O)N3CCN(c4ccc5c(c4)CN(C4CCC(=O)NC4=O)C5=O)CC3)cc2)cc1 (stereo not shown) [Compound D54, 3-(5-(4-(2-(4-((6-hydroxy-2-(4-(methylsulfonyl)phenyl)naphthalen-1-yl)oxy)phenoxy)acetyl)piperazin-1-yl)-1-oxoisoindolin-2-yl)piperidine-2,6-dione]
MCF-7
  IC50: 13.2 nM
  inhibition at up to 10 µM: 96.5%

## CS(=O)(=O)c1ccc(-c2ccc3cc(O)ccc3c2Oc2ccc(OCCOCCOCCOCCOc3cccc4c3CN(C3CCC(=O)NC3=O)C4=O)cc2)cc1 (stereo not shown) [Compound D14, 3-(4-(2-(2-(2-(2-(4-((6-hydroxy-2-(4-(methylsulfonyl)phenyl)naphthalen-1-yl)oxy)phenoxy)ethoxy)ethoxy)ethoxy)ethoxy)-1-oxoisoindolin-2-yl)piperidine-2,6-dione]
MDA-MB-468
  inhibition at up to 10 µM: 32%
MCF-7
  inhibition at up to 10 µM: 42%
MCF-7 ER^D538G
  inhibition at up to 10 µM: 40%

## CCN(CCOCCOCC(=O)N1CCN(c2ccc3c(c2)CN(C2CCC(=O)NC2=O)C3=O)CC1)CCOc1ccc(Oc2c(-c3ccc(S(C)(=O)=O)cc3)ccc3cc(O)ccc23)cc1 (stereo not shown) [Compound D46]
MCF-7
  inhibition at up to 10 µM: 34%
MCF-7 ER^D538G
  inhibition at up to 10 µM: 46%

## CS(=O)(=O)c1ccc(-c2ccc3cc(O)ccc3c2Oc2ccc(OCCCCN3CCN(c4ccc5c(c4)C(=O)N(C4CCC(=O)NC4=O)C5=O)CC3)cc2)cc1 (stereo not shown) [Compound D13, 2-(2,6-dioxopiperidin-3-yl)-5-(4-(4-(4-((6-hydroxy-2-(4-(methylsulfonyl)phenyl)naphthalen-1-yl)oxy)phenoxy)butyl)piperazin-1-yl)isoindoline-1,3-dione]
MCF-7
  inhibition at up to 10 µM: 34%

## CS(=O)(=O)c1ccc(-c2ccc3cc(O)ccc3c2Oc2ccc(OCCOCCOCCN3CCN(c4cccc5c4CN(C4CCC(=O)NC4=O)C5=O)CC3)cc2)cc1 (stereo not shown) [Compound D37, 3-(4-(4-(2-(2-(2-(4-((6-hydroxy-2-(4-(methylsulfonyl)phenyl)naphthalen-1-yl)oxy)phenoxy)ethoxy)ethoxy)ethyl)piperazin-1-yl)-1-oxoisoindolin-2-yl)piperidine-2,6-dione]
MCF-7
  inhibition at up to 10 µM: 49%
MCF-7 ER^D538G
  inhibition at up to 10 µM: 52%

## CS(=O)(=O)c1ccc(-c2ccc3cc(O)ccc3c2Oc2ccc(OCCN3CCN(c4cccc5c4CN(C4CCC(=O)NC4=O)C5=O)CC3)cc2)cc1 (stereo not shown) [Compound D53, 3-(4-(4-(2-(4-((6-hydroxy-2-(4-(methylsulfonyl)phenyl)naphthalen-1-yl)oxy)phenoxy)ethyl)piperazin-1-yl)-1-oxoisoindolin-2-yl)piperidine-2,6-dione]
MDA-MB-468
  inhibition at up to 10 µM: 99.2%
MCF-7
  inhibition at up to 10 µM: 49.7%

## CS(=O)(=O)c1ccc(-c2ccc3cc(O)ccc3c2Oc2ccc(OCCOCCN3CCN(c4ccc5c(c4)C(=O)N(C4CCC(=O)NC4=O)C5)CC3)cc2)cc1 (stereo not shown) [Compound D43, 3-(6-(4-(2-(2-(4-((6-hydroxy-2-(4-(methylsulfonyl)phenyl)naphthalen-1-yl)oxy)phenoxy)ethoxy)ethyl)piperazin-1-yl)-1-oxoisoindolin-2-yl)piperidine-2,6-dione]
MCF-7
  inhibition at up to 10 µM: 36%
MCF-7 ER^D538G
  inhibition at up to 10 µM: 36%

## CCN(CCCCCCCCCc1ccc2c(c1)C(=O)N(C1CCC(=O)NC1=O)C2=O)CCOc1ccc(Oc2c(-c3ccc(S(C)(=O)=O)cc3)ccc3cc(O)ccc23)cc1 (stereo not shown) [Compound D63, 2-(2,6-dioxopiperidin-3-yl)-5-(9-(ethyl(2-(4-((6-hydroxy-2-(4-(methylsulfonyl)phenyl)naphthalen-1-yl)oxy)phenoxy)ethyl)amino)nonyl)isoindoline-1,3-dione]
MCF-7
  IC50: 153 nM
  inhibition at up to 10 µM: 98.9%

## CS(=O)(=O)c1ccc(-c2ccc3cc(O)ccc3c2Oc2ccc(OCCOCCOCCOCCNc3ccc4c(c3)C(=O)N(C3CCC(=O)NC3=O)C4)cc2)cc1 (stereo not shown) [Compound D29]
MCF-7
  inhibition at up to 10 µM: 47%
MCF-7 ER^D538G
  inhibition at up to 10 µM: 47%

## CCN(CCOCCN1CCN(c2ccc3c(c2)C(=O)N(C2CCC(=O)NC2=O)C3)CC1)CCOc1ccc(Oc2c(-c3ccc(S(C)(=O)=O)cc3)ccc3cc(O)ccc23)cc1 (stereo not shown) [Compound D51]
MCF-7
  IC50: 143 nM
  inhibition at up to 10 µM: 52.9%

## CCN(CCOCC(=O)N1CCN(c2ccc3c(c2)C(=O)N(C2CCC(=O)NC2=O)C3)CC1)CCOc1ccc(Oc2c(-c3ccc(S(C)(=O)=O)cc3)ccc3cc(O)ccc23)cc1 (stereo not shown) [Compound D50]
MCF-7
  inhibition at up to 10 µM: 48.4%
